These results are taken from patent publication US12396961B2, “Compounds and compositions for intracellular delivery of agents” (ModernaTX, Inc., priority 2015, dated 2025).

The nature of the series: Particle size and polydispersity index (Zetasizer Nano ZS). The series is classed as physicochemical. An excerpt:
Nanoparticle compositions may be characterized by a variety of methods. For example, microscopy (e.g., transmission electron microscopy or scanning electron microscopy) may be used to examine the morphology and size distribution of a nanoparticle composition. Dynamic light scattering or potentiometry (e.g., potentiometric titrations) may be used to measure zeta potentials. Dynamic light scattering may also be utilized to determine particle sizes. Instruments such as the Zetasizer Nano ZS (Malvern Instruments Ltd, Malvern, Worcestershire, UK) may also be used to measure multiple characteristics of a nanoparticle composition, such as particle size, polydispersity index, and zeta potential.
A Zetasizer Nano ZS (Malvern Instruments Ltd, Malvern, Worcestershire, UK) can be used to determine the particle size, the polydispersity index (PDI) and the zeta potential of the nanoparticle compositions in 1×PBS in determining particle size and 15 mM PBS in determining zeta potential.

Where [1] appears, read: Table 1, marked *: lipid:DSPC:Chol:PEG-DMG 50:10:38.5:1.5.
[2] abbreviates: Table 1, DOPE 40:20:38.5:1.5, Luc mRNA.

In the case of `CCCCCCCCCCCCN(CCCCCCCCCCCC)CCN(CCO)CCCCCCCC(=O)OC(CCCCCCCC)CCCCCCCC` [Compound 20-9, Heptadecan-9-yl 8-((2-(didodecylamino)ethyl)(2-hydroxyethyl)amino)octanoate], under “Table 20-1”, the PDI is 0.130.

`CCCCCCCCCCCCN(CCO)CCN(CCCCCCCCC)CCCCCCCCC` [Compound 20-18, 2-((2-(Dinonylamino)ethyl)(dodecyl)amino)ethan-1-ol] gave a PDI (Table 20-1) of 0.150.

Molecule `CCCCCCCCCCCCN(CCCCCCCCCCCC)CCN(CCO)CCCCCC(=O)OCCCCC` [Compound 20-3, Pentyl 6-((2-(didodecylamino)ethyl)(2-hydroxyethyl)amino)hexanoate] came in with a PDI (Table 20-1) of 0.110.

In turn, `CCCCCCCC/C=C\CCCCCCCCN(CCCCCCCC/C=C\CCCCCCCC)CCN(CCCCCCCC/C=C\CCCCCCCC)CCN1CCNCC1` [Compound 40, N^1,N^1,N^2-Tri((Z)-octadec-9-en-1-yl)-N^2-(2-(piperazin-1-yl)ethyl)ethane-1,2-diamine] came in with a PDI under setting [1] of 0.210.

In turn, `CCCCCCCCCN(CCCCCCCCC)CCN(CCCCCCCCC)CCN1CCN(CCN(CCCCCCCCC)CCCCCCCCC)CC1` [Compound 18, N^1-(2-(4-(2-(Dinonylamino)ethyl)piperazin-1-yl)ethyl)-N^1,N^2,N^2-trinonylethane-1,2-diamine] had a PDI under setting [2] of 0.120.

Consider `CCCCC/C=C\C/C=C\CCCCCCCCN(CCCCCCCC/C=C\C/C=C\CCCCC)CCN(CCCCCCCC/C=C\C/C=C\CCCCC)CCN1CCNCC1` [Compound 41, N^1,N^1,N^2-Tri((9Z,12Z)-octadeca-9,12-dien-1-yl)-N^2-(2-(piperazin-1-yl)ethyl)ethane-1,2-diamine], for which, under setting [1], the “Size (nm)” value turned out to be 69.0 nm.

In turn, `CCCCCCCCCCCCN(CCCCCCCCCCCC)CCN(CCCCCCCCCCCC)CCN1CCN(CCN(CCCCCCCC)CCCCCCCC)CC1` [Compound 22, N^1-(2-(4-(2-(Dioctylamino)ethyl)piperazin-1-yl)ethyl)-N^1,N^2,N^2-tridodecylethane-1,2-diamine] registered a PDI (formulated with hEPO mRNA) of 0.130.

For the setting “Table 20-1”, `CCCCCCCCCN(CCCCCCCCC)CCN(CCO)CCCCCC(=O)OCCCCC` [Compound 20-6, Pentyl 6-((2-(dinonylamino)ethyl)(2-hydroxyethyl)amino)hexanoate] came in with a PDI of 0.220.

In turn, `CCCCCCCCCCCCN(CCO)CCN(CCCCCCCCCCCC)CCCCCC(=O)OCCCCCCC` [Compound 20-7, Heptyl 6-(dodecyl(2-(dodecyl(2-hydroxyethyl)amino)ethyl)amino)hexanoate] showed a PDI (Table 20-1) of 0.170.

The molecule `CCCCCCCCCCCCCCN(CCCCCCCCCCCCCC)CCN(CCCCCCCCCCCCCC)CCN1CCN(CCN(CCCCCCCCCCCC)CCCCCCCCCCCC)CC1` [Compound 31, N^1-(2-(4-(2-(Didodecylamino)ethyl)piperazin-1-yl)ethyl)-N^1,N^2,N^2 tritetradecylethane-1,2-diamine] displayed a PDI under setting [2] of 0.130.

Where the note is “Table 20-1”, `CCCCC/C=C\C/C=C\CCCCCCCCN(CCCCCCCC/C=C\C/C=C\CCCCC)CCN(CCO)CCCCCCCCCCCC` [Compound 20-13, 2-((2-(Di((9Z,12Z)-octadeca-9,12-dien-1-yl)amino)ethyl)(dodecyl)amino)ethan-1-ol] registered a PDI of 0.057.

Molecule `CCCCCCCCCCCCCCN(CCCCCCCCCCCCCC)CCN(CCCCCCCCCCCCCC)CCN1CCN(CCN(CCCCCCCCCCCCCC)CCCCCCCCCCCCCC)CC1` [Compound 32, N^1-(2-(4-(2-(Ditetradecylamino)ethyl)piperazin-1-yl)ethyl)-N^1,N^2,N^2 tritetradecylethane-1,2-diamine] showed a PDI under setting [2] of 0.160.

As to `CCCCC/C=C\C/C=C\CCCCCCCCN(CCCCCCCC/C=C\C/C=C\CCCCC)CCN1CCN(CCN(CCCCCCCCCCCC)CCN(CCCCCCCCCCCC)CCCCCCCCCCCC)CC1` [Compound 29, N^1-(2-(4-(2-(Di((9Z,12Z)-octadeca-9,12-dien-1-yl)amino)ethyl)piperazin-1-yl)ethyl)-N^1,N^2,N^2-tridodecylethane-1,2-diamine], the PDI under setting [2] came out at 0.060.

`CCCCCCCCCCCCN(CCO)CCN(CCCCCC(=O)OCCCCC)CCCCCC(=O)OCCCCC` [Compound 20-4, Dipentyl 6,6′-((2-(dodecyl(2-hydroxyethyl)amino)ethyl)azanediyl)dihexanoate] yielded a PDI (Table 20-1) of 0.160.

In turn, `CCCCCCCC/C=C\CCCCCCCCN(CCCCCCCC/C=C\CCCCCCCC)CCN1CCN(CCN(CCCCCCCCCCCC)CCN(CCCCCCCCCCCC)CCCCCCCCCCCC)CC1` [Compound 28, N^1-(2-(4-(2-(Di((Z)-octadec-9-en-1-yl)amino)ethyl)piperazin-1-yl)ethyl)-N^1,N^2,N^2-tridodecylethane-1,2-diamine] registered a PDI under setting [2] of 0.099.

`CCCCCCCCCCCCN(CCCCCCCCCCCC)CCN1CCN(CCN(CCCCCC)CCN(CCCCCC)CCCCCC)CC1` [Compound 17, N^1-(2-(4-(2-(Didodecylamino)ethyl)piperazin-1-yl)ethyl)-N^1,N^2,N^2-trihexylethane-1,2-diamine] gave a PDI under setting [2] of 0.180.

The molecule `CCCCCCCCCCCCN(CCCCCCCCCCCC)CCN(CCCCCCCCCCCC)CCN1CCN(C(=O)CN(CCCCCCCCCCCC)CCCCCCCCCCCC)CC1` [Compound 3, 2-(Didodecylamino)-1-(4-(2-((2-(didodecylamino)ethyl)(dodecyl)amino)ethyl)piperazin-1-yl)ethan-1-one] came in with a PDI under setting [2] of 0.044.

`CCCCCCCCCCCCN(CCO)CCN(CCCCCCCCCCCC)CCCCCC(=O)OCCCCC` [Compound 20-2, Pentyl 6-(dodecyl(2-(dodecyl(2-hydroxyethyl)amino)ethyl)amino)hexanoate] yielded a PDI (Table 20-1) of 0.130.

In turn, `CCCCCCCCCCCCCCN(CCCCCCCCCCCCCC)CCN(CCCCCCCCCCCCCC)CCN1CCN(CCN(CCCCCCCCCCCC)CCCCCC(=O)OCCCCC)CC1` [Compound 13, Pentyl 6-((2-(4-(2-((2-(ditetradecylamino)ethyl)(tetradecyl)amino)ethyl)piperazin-1-yl)ethyl)(dodecyl)amino)hexanoate] registered a PDI under setting [2] of 0.080.

Consider `CCCCCCCCCCCCN(CCO)CCN(CCCCCCCC(=O)OCCCCCCCCC)CCCCCCCC(=O)OCCCCCCCCC` [Compound 20-10, Dinonyl 8,8′-((2-(dodecyl(2-hydroxyethyl)amino)ethyl)azanediyl)dioctanoate], for which the PDI (Table 20-1) is recorded as 0.130.

`CCCCCCCCCN(CCCCCCCCC)CCN(CCCCCCCCC)CCN1CCNCC1` [Compound 36, N^1,N^1,N^2-Trinonyl-N^2-(2-(piperazin-1-yl)ethyl)ethane-1,2-diamine] registered a PDI under setting [1] of 0.110.

As to `CCCCCCCCCCCCN(CCCCCCCCCCCC)CCN(CCO)CCCCCCCCC` [Compound 20-17, 2-((2-(didodecylamino)ethyl)(nonyl)amino)ethan-1-ol], the PDI (Table 20-1) is recorded as 0.092.

Under setting [2], `CCCCCCCCCCCCCCN(CCCCCCCCCCCCCC)CCN(CCCCCCCCCCCCCC)CCN1CCN(CCN(CCCCCCCCC)CCCCCCCCC)CC1` [Compound 30, N^1-(2-(4-(2-(Dinonylamino)ethyl)piperazin-1-yl)ethyl)-N^1,N^2,N^2-tritetradecylethane-1,2-diamine] yielded a PDI of 0.110. In addition, the “Size (nm)” value (Table 1, lipid:DOPE:Chol:PEG-DMG 40:20:38.5:1.5, Luc mRNA, MC3 standard formulation) amounted to 95.0 nm.

Take `CCCCCCCCCCCCN(CCCCCCCCCCCC)CCN1CCN(CCN(CCCCCCCCC)CCN(CCCCCCCCC)CCCCCCCCC)CC1` [Compound 19, N^1-(2-(4-(2-(Didodecylamino)ethyl)piperazin-1-yl)ethyl)-N^1,N^2,N^2-trinonylethane-1,2-diamine]: under setting [2], the PDI is 0.100.

`CCCCCCCCCCCCCCN(CCO)CCN(CCCCCCCCCCCC)CCCCCCCCCCCC` [Compound 20-24, 2-((2-(Didodecylamino)ethyl)(tetradecyl)amino)ethan-1-ol] showed a PDI (Table 20-1) of 0.038.

With `CCCCC/C=C\C/C=C\CCCCCCCCN(CCCCCCCC/C=C\C/C=C\CCCCC)CCN(CCCCCCCC/C=C\C/C=C\CCCCC)CCN1CCN(CCN(CCCCCCCCCCCC)CCCCCCCCCCCC)CC1` [Compound 34, N^1-(2-(4-(2-(Didodecylamino)ethyl)piperazin-1-yl)ethyl)-N^1,N^2,N^2-tri((9Z,12Z)-octadeca-9,12-dien-1-yl)ethane-1,2-diamine], the PDI under setting [1] is 0.077.

Molecule `CCCCCCCCCCCCN(CCCCCCCCCCCC)CCN(CCCCCCCCCCCC)CC(=O)O` [Compound 20-1, N-(2-(Didodecylamino)ethyl)-N-dodecylglycine] returned a PDI (Table 20-1, row marked *: formulated with DOPE) of 0.078.

With `CCCCCCCCCCCCN(CCCCCCCCCCCC)CCN(CCCCCCCCCCCC)CCN1CCN(CCN(CCCCCCCCCCCC)CCCCCCCCCCCC(=O)OC)CC1` [Compound 15, Methyl 12-((2-(4-(2-((2-(didodecylamino)ethyl)(dodecyl)amino)ethyl)piperazin-1-yl)ethyl)(dodecyl)amino)dodecanoate], the PDI (formulated with hEPO mRNA) stood at 0.120.

`CCCCCCCOC(=O)CCCCCN(CCO)CCN(CCCCCC(=O)OCCCCCCC)CCCCCC(=O)OCCCCCCC` [Compound 20-5, Diheptyl 6,6′-((2-((6-(heptyloxy)-6-oxohexyl)(2 hydroxyethyl)amino)ethyl)azanediyl)dihexanoate]: the PDI (Table 20-1) came to 0.210.

In turn, `CCCCC/C=C\CCCCCN(CCO)CCN(CCCCCCCCCCCC)CCCCCCCCCCCC` [Compound 20-23, (Z)-2-((2-(Didodecylamino)ethyl)(dodec-6-en-1-yl)amino)ethan-1-ol] displayed a PDI (Table 20-1) of 0.080.
